In ChEMBL document CHEMBL1201862, “PubChem BioAssay data set” (2004):
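48-hour exposure; five concentrations; linearly interpolated endpoints. At the GI50, growth is halved.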 Activity calls are given as the source filed them. No stated cut-off is given here; in the data, active = GI50 up to about 1.1 µM and inactive = higher.

Legend:
Assay in all cases: DTP human tumour cell line panel, 48 h
[1] = system: Malme-3M
[2] = system: HOP-62
[3] = system: HCT-116
[4] = system: UO-31
[5] = system: SN12C
[6] = system: ACHN
[7] = system: NCI-H226
[8] = system: OVCAR-3
[9] = system: SK-OV-3
[10] = system: KM12
[11] = system: EKVX
[12] = system: UACC-257
[13] = system: 786-0
[14] = system: SNB-75
[15] = system: SR
[16] = system: NCI-H522

Measured: GI50

O=[N+]([O-])c1ccc(/C=N/C2CCCCC2)cc1
inactive: [1] > 100 µM | [2] > 100 µM | [3] > 100 µM | [4] > 100 µM | [5] > 100 µM | [6] > 100 µM | [7] > 100 µM | [8] > 100 µM | [9] > 100 µM | [10] > 100 µM | [11] > 100 µM | [12] > 100 µM | [13] > 100 µM | [14] > 100 µM | [15] > 100 µM

COC(=O)C1CCc2c1c(=O)n1c([nH]c3ccccc31)c2C#N (configuration not stated)
inactive: [1] > 100 µM | [2] > 100 µM | [3] > 100 µM | [4] > 100 µM | [6] > 100 µM | [7] > 100 µM | [8] > 100 µM | [9] > 100 µM | [10] > 100 µM | [11] > 100 µM | [12] > 100 µM | [13] > 100 µM | [16] > 100 µM | [14] > 100 µM

CC(C)(C)c1ccc(OC2CCO2)cc1 (configuration not stated)
inactive: [1] 67 µM | [2] > 100 µM | [3] 21 µM | [4] 58.2 µM | [5] 18.7 µM | [6] 34.5 µM | [7] 27.9 µM | [8] 34.5 µM | [9] > 100 µM | [10] 25.9 µM | [11] 35.1 µM | [12] 31.6 µM | [13] 28.7 µM | [16] 23.6 µM | [14] 53.8 µM

CC(=O)O[C@H]1CC[C@@]2(C)C(=C/C(=N\[N+](=O)[O-])[C@H]3C4CCC([C@H](C)CCCC(C)C)[C@@]4(C)CCC32)C1 (some centres not stated)
inactive: [1] > 100 µM | [2] > 100 µM | [3] > 100 µM | [4] > 100 µM | [5] > 100 µM | [6] > 100 µM | [7] > 100 µM | [8] > 100 µM | [9] > 100 µM | [11] > 100 µM | [12] > 100 µM | [13] > 100 µM | [16] > 100 µM | [14] > 100 µM

COc1cc(/C=C\c2ccccn2)cc(OC)c1OC
inactive: [1] > 100 µM | [2] 79.4 µM | [3] > 100 µM | [4] 56.9 µM | [5] > 100 µM | [6] > 100 µM | [7] > 100 µM | [8] > 100 µM | [10] 63.8 µM | [11] 48.5 µM | [12] > 100 µM | [13] > 100 µM | [16] 70 µM | [14] 47.3 µM

CCCCc1c2c(nc3c1CCC/C3=C\c1ccccc1)/C(=C/c1ccccc1)CCC2
inactive: [1] > 100 µM | [2] > 100 µM | [3] > 100 µM | [4] > 100 µM | [5] > 100 µM | [6] > 100 µM | [7] > 100 µM | [8] > 100 µM | [9] > 100 µM | [10] > 100 µM | [11] > 100 µM | [12] > 100 µM | [13] > 100 µM | [16] > 100 µM | [15] > 100 µM

COC(=O)/C(C)=C(/CCC1(C)OCCO1)O[Si](C)(C)C
inactive: [1] > 100 µM | [2] > 100 µM | [3] > 100 µM | [4] 95.3 µM | [5] > 100 µM | [6] > 100 µM | [8] > 100 µM | [9] > 100 µM | [10] > 100 µM | [11] > 100 µM | [12] > 100 µM | [13] > 100 µM | [14] 20.5 µM

Cc1ccc(C)c2sc3cc(=O)ccc-3nc12
inactive: [2] 28.7 µM | [3] 54.3 µM | [4] 45.5 µM | [5] 57.7 µM | [6] 30 µM | [7] 75.2 µM | [8] 43.3 µM | [9] > 100 µM | [10] 33.8 µM | [11] 37.2 µM | [12] 35.1 µM | [13] 39.2 µM | [16] 7.83 µM | [14] 55.5 µM | [15] 26.4 µM

C#CCN(C(=O)C(F)(F)F)c1ccc(C(=O)c2ccc(N(CC#C)C(=O)C(F)(F)F)cc2)cc1
inactive: [1] 32.6 µM | [2] 48.2 µM | [3] 34.5 µM | [4] 59.7 µM | [5] 34.9 µM | [6] 32.7 µM | [8] 33.1 µM | [10] 32.2 µM | [11] 61 µM | [12] 26.4 µM | [13] 34.1 µM | [16] 14.9 µM | [14] 43.4 µM

CC(=O)NC(CC(C)C)C(=O)NC(Cc1ccccc1)C(=S)N1CCCC1 (configuration not stated)
inactive: [1] > 100 µM | [2] > 100 µM | [4] > 100 µM | [5] > 100 µM | [6] > 100 µM | [7] 74.8 µM | [8] > 100 µM | [9] > 100 µM | [10] > 100 µM | [11] > 100 µM | [12] > 100 µM | [13] > 100 µM | [16] > 100 µM | [14] > 100 µM

COc1ccccc1/N=N/C(C(=O)c1ccccc1)C(=O)c1ccccc1
inactive: [1] 25.4 µM | [2] 15.5 µM | [3] 11.5 µM | [4] 12.8 µM | [5] 17.2 µM | [6] 21.6 µM | [7] 14.4 µM | [8] 22.5 µM | [9] 45.1 µM | [10] 29.2 µM | [11] 21.4 µM | [12] 28.4 µM | [13] 24.4 µM | [16] 16.1 µM | [14] 19.9 µM

O=C(CC(=O)Nc1ccc(Cl)cc1)NNCC(=O)Nc1nc(-c2ccccc2)cs1
inactive: [2] > 100 µM | [3] > 100 µM | [5] > 100 µM | [7] > 100 µM | [8] > 100 µM | [9] > 100 µM | [10] > 100 µM | [11] > 100 µM | [13] > 100 µM | [16] > 100 µM | [14] > 100 µM

O=c1cnn2c(n1)sc1ccc3ccccc3c12
inactive: [1] > 100 µM | [2] 98.9 µM | [3] 87.9 µM | [4] > 100 µM | [5] > 100 µM | [6] > 100 µM | [7] > 100 µM | [8] > 100 µM | [9] > 100 µM | [10] > 100 µM | [11] 25.1 µM | [12] > 100 µM | [13] > 100 µM | [14] > 100 µM | [15] 59.4 µM

Cn1nc(-c2ccccc2)c(C(=O)/C=C/c2ccccc2)c(N2CCCCC2)c1=O
inactive: [2] 3.91 µM | [3] 4.91 µM | [4] 17.5 µM | [5] > 100 µM | [6] 46.1 µM | [9] > 100 µM | [11] > 100 µM | [13] 12.5 µM | [16] 7.05 µM
